Test results reported in patent publication US20130338106A1, “COMPOUNDS INHIBITING LEUCINE-RICH REPEAT KINASE ENZYME ACTIVITY” (priority 2011, published 2013).

What was measured:
Assay type in all cases: biochemical
Conditions in all cases: tested at 10 uM, read-out: percent inhibition of the kinase activity
ABL Q252H = target: T1, ABL Q252H (Homo sapiens, UniProt P00519, Q252H); experiment: ProfilerPro Kinase Selectivity, ABL Q252H
T1 construct: purchased Caliper LifeSciences
Procedure: (§1) Kinome selectivity profiling was performed using two example compounds according to the manufacturer's instructions using Caliper LifeSciences' ProfilerPro Kinase Selectivity Assay Kits. Compounds prepared in Examples 1 and 7 were tested at 10 uM and data were recorded using the Caliper LabChip® EZ Reader™. Each compounds' percent inhibition of the kinase activity measured in this manner is reported in the following lists.

ABL T315I = target: T2, ABL T315I (Homo sapiens, UniProt P00519, T315I); experiment: ProfilerPro Kinase Selectivity, ABL T315I
T2 construct: purchased Caliper LifeSciences
Procedure: as §1

AMPKA1 = target: T3, AMPKA1 (Homo sapiens, UniProt Q13131); experiment: ProfilerPro Kinase Selectivity, AMPKA1
T3 construct: purchased Caliper LifeSciences
Procedure: as §1

CAMK2A = target: T4, CAMK2A (Homo sapiens, UniProt Q9UQM7); experiment: ProfilerPro Kinase Selectivity, CAMK2A
T4 construct: purchased Caliper LifeSciences
Procedure: as §1

CAMK2B = target: T5, CAMK2B (Homo sapiens, UniProt Q13554); experiment: ProfilerPro Kinase Selectivity, CAMK2B
T5 construct: purchased Caliper LifeSciences
Procedure: as §1

CAMK2G = target: T6, CAMK2G (Homo sapiens, UniProt Q13555); experiment: ProfilerPro Kinase Selectivity, CAMK2G
T6 construct: purchased Caliper LifeSciences
Procedure: as §1

CDK1/CYCB1 = target: T7, CDK1/CYCB1 (Homo sapiens, UniProt P06493); experiment: ProfilerPro Kinase Selectivity, CDK1/CYCB1
T7 construct: purchased Caliper LifeSciences
Procedure: as §1

CDK2 = target: T8, CDK2 (Homo sapiens, UniProt P24941); experiment: ProfilerPro Kinase Selectivity, CDK2
T8 construct: purchased Caliper LifeSciences
Procedure: as §1

CDK3 = target: T9, CDK3 (Homo sapiens, UniProt Q00526); experiment: ProfilerPro Kinase Selectivity, CDK3
T9 construct: purchased Caliper LifeSciences
Procedure: as §1

CHK2 = target: T10, CHK2 (Homo sapiens, UniProt O96017); experiment: ProfilerPro Kinase Selectivity, CHK2
T10 construct: purchased Caliper LifeSciences
Procedure: as §1

DYRK1A = target: T11, DYRK1A (Homo sapiens, UniProt Q13627); experiment: ProfilerPro Kinase Selectivity, DYRK1A
T11 construct: purchased Caliper LifeSciences
Procedure: as §1

DYRK3 = target: T12, DYRK3 (Homo sapiens, UniProt O43781); experiment: ProfilerPro Kinase Selectivity, DYRK3
T12 construct: purchased Caliper LifeSciences
Procedure: as §1

DYRK4 = target: T13, DYRK4 (Homo sapiens, UniProt Q9NR20); experiment: ProfilerPro Kinase Selectivity, DYRK4
T13 construct: purchased Caliper LifeSciences
Procedure: as §1

EPHA3 = target: T14, EPHA3 (Homo sapiens, UniProt P29320); experiment: ProfilerPro Kinase Selectivity, EPHA3
T14 construct: purchased Caliper LifeSciences
Procedure: as §1

EPHA4 = target: T15, EPHA4 (Homo sapiens, UniProt P54764); experiment: ProfilerPro Kinase Selectivity, EPHA4
T15 construct: purchased Caliper LifeSciences
Procedure: as §1

FLT1 = target: T16, FLT1 (Homo sapiens, UniProt P17948); experiment: ProfilerPro Kinase Selectivity, FLT1
T16 construct: purchased Caliper LifeSciences
Procedure: as §1

FMS = target: T17, FMS (Homo sapiens, UniProt P07333); experiment: ProfilerPro Kinase Selectivity, FMS
T17 construct: purchased Caliper LifeSciences
Procedure: as §1

HCK = target: T18, HCK (Homo sapiens, UniProt P08631); experiment: ProfilerPro Kinase Selectivity, HCK
T18 construct: purchased Caliper LifeSciences
Procedure: as §1

HIPK2 = target: T19, HIPK2 (Homo sapiens, UniProt Q9H2X6); experiment: ProfilerPro Kinase Selectivity, HIPK2
T19 construct: purchased Caliper LifeSciences
Procedure: as §1

ITK = target: T20, ITK (Homo sapiens, UniProt Q08881); experiment: ProfilerPro Kinase Selectivity, ITK
T20 construct: purchased Caliper LifeSciences
Procedure: as §1

KDR = target: T21, KDR (Homo sapiens, UniProt P35968); experiment: ProfilerPro Kinase Selectivity, KDR
T21 construct: purchased Caliper LifeSciences
Procedure: as §1

KIT = target: T22, KIT (Homo sapiens, UniProt P10721); experiment: ProfilerPro Kinase Selectivity, KIT
T22 construct: purchased Caliper LifeSciences
Procedure: as §1

MET M1250T = target: T23, MET M1250T (Homo sapiens, UniProt P08581, M1250T); experiment: ProfilerPro Kinase Selectivity, MET M1250T
T23 construct: purchased Caliper LifeSciences
Procedure: as §1

MSK2 = target: T24, MSK2 (Homo sapiens, UniProt O75676); experiment: ProfilerPro Kinase Selectivity, MSK2
T24 construct: purchased Caliper LifeSciences
Procedure: as §1

P38A/SAPK2A T106M = target: T25, P38A/SAPK2A T106M (Homo sapiens, UniProt Q16539, T106M); experiment: ProfilerPro Kinase Selectivity, P38A/SAPK2A T106M
T25 construct: purchased Caliper LifeSciences
Procedure: as §1

PDGFRA = target: T26, PDGFRA (Homo sapiens, UniProt P16234); experiment: ProfilerPro Kinase Selectivity, PDGFRA
T26 construct: purchased Caliper LifeSciences
Procedure: as §1

PDGFRA D842V = target: T27, PDGFRA D842V (Homo sapiens, UniProt P16234, D842V); experiment: ProfilerPro Kinase Selectivity, PDGFRA D842V
T27 construct: purchased Caliper LifeSciences
Procedure: as §1

PHKG2 = target: T28, PHKG2 (Homo sapiens, UniProt P15735); experiment: ProfilerPro Kinase Selectivity, PHKG2
T28 construct: purchased Caliper LifeSciences
Procedure: as §1

PIM2 = target: T29, PIM2 (Homo sapiens, UniProt Q9P1W9); experiment: ProfilerPro Kinase Selectivity, PIM2
T29 construct: purchased Caliper LifeSciences
Procedure: as §1

PIM-3 = target: T30, PIM-3 (Homo sapiens, UniProt Q86V86); experiment: ProfilerPro Kinase Selectivity, PIM-3
T30 construct: purchased Caliper LifeSciences
Procedure: as §1

PKD1 = target: T31, PKD1 (Homo sapiens, UniProt Q15139); experiment: ProfilerPro Kinase Selectivity, PKD1
T31 construct: purchased Caliper LifeSciences
Procedure: as §1

PRKCB2 = target: T32, PRKCB2 (Homo sapiens, UniProt P05771); experiment: ProfilerPro Kinase Selectivity, PRKCB2
T32 construct: purchased Caliper LifeSciences
Procedure: as §1

RET = target: T33, RET (Homo sapiens, UniProt P07949); experiment: ProfilerPro Kinase Selectivity, RET
T33 construct: purchased Caliper LifeSciences
Procedure: as §1

RET V804L = target: T34, RET V804L (Homo sapiens, UniProt P07949, V804L); experiment: ProfilerPro Kinase Selectivity, RET V804L
T34 construct: purchased Caliper LifeSciences
Procedure: as §1

ROCK1 = target: T35, ROCK1 (Homo sapiens, UniProt Q13464); experiment: ProfilerPro Kinase Selectivity, ROCK1
T35 construct: purchased Caliper LifeSciences
Procedure: as §1

TEC = target: T36, TEC (Homo sapiens, UniProt P42680); experiment: ProfilerPro Kinase Selectivity, TEC
T36 construct: purchased Caliper LifeSciences
Procedure: as §1

TYRO3 = target: T37, TYRO3 (Homo sapiens, UniProt Q06418); experiment: ProfilerPro Kinase Selectivity, TYRO3
T37 construct: purchased Caliper LifeSciences
Procedure: as §1

ZIPK = target: T38, ZIPK (Homo sapiens, UniProt O43293); experiment: ProfilerPro Kinase Selectivity, ZIPK
T38 construct: purchased Caliper LifeSciences
Procedure: as §1

T12 sequence (O43781 whole entry, species assumed): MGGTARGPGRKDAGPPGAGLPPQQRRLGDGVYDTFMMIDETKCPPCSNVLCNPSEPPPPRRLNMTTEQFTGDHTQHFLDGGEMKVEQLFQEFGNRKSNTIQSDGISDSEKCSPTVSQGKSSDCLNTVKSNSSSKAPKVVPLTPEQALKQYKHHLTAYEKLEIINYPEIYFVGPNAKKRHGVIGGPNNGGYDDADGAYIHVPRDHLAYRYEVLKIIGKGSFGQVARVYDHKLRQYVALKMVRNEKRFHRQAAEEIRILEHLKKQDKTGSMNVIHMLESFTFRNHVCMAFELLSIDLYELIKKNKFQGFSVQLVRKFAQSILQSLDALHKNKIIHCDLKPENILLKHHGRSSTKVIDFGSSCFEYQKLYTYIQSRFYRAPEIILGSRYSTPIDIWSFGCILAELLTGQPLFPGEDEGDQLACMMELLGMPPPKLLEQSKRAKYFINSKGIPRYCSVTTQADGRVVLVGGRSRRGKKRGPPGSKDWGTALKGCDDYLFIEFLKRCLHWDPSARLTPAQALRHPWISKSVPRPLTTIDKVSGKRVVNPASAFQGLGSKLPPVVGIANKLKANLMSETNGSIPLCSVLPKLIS
T27 sequence (P16234 24-1089 D842V): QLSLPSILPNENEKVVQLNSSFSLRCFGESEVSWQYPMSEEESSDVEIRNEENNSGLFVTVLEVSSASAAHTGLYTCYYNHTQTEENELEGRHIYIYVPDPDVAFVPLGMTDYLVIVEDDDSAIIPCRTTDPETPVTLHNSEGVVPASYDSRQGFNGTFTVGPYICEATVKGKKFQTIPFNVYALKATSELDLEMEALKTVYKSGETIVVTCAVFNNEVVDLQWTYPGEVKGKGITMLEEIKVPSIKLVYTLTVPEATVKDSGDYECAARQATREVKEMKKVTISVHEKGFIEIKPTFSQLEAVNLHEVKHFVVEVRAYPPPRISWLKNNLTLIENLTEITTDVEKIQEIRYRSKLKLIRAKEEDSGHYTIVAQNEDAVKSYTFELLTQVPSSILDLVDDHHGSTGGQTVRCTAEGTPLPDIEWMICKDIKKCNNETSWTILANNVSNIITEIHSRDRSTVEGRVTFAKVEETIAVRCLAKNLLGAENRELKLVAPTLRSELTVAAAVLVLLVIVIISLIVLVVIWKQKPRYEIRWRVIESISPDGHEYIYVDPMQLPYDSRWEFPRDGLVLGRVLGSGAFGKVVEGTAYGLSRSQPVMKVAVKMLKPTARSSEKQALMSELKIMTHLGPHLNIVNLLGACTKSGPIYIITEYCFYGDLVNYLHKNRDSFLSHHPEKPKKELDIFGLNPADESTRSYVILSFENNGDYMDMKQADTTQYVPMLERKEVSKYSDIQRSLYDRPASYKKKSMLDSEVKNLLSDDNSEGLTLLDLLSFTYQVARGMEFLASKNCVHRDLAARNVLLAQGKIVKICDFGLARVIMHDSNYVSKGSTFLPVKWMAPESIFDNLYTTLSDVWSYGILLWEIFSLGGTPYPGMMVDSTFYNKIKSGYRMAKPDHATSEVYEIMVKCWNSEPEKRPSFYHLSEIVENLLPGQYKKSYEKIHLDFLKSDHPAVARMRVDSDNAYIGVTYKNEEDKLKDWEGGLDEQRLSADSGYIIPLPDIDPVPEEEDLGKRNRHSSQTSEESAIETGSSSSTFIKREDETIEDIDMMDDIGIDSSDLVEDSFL
T33 sequence (P07949 29-1114, species assumed): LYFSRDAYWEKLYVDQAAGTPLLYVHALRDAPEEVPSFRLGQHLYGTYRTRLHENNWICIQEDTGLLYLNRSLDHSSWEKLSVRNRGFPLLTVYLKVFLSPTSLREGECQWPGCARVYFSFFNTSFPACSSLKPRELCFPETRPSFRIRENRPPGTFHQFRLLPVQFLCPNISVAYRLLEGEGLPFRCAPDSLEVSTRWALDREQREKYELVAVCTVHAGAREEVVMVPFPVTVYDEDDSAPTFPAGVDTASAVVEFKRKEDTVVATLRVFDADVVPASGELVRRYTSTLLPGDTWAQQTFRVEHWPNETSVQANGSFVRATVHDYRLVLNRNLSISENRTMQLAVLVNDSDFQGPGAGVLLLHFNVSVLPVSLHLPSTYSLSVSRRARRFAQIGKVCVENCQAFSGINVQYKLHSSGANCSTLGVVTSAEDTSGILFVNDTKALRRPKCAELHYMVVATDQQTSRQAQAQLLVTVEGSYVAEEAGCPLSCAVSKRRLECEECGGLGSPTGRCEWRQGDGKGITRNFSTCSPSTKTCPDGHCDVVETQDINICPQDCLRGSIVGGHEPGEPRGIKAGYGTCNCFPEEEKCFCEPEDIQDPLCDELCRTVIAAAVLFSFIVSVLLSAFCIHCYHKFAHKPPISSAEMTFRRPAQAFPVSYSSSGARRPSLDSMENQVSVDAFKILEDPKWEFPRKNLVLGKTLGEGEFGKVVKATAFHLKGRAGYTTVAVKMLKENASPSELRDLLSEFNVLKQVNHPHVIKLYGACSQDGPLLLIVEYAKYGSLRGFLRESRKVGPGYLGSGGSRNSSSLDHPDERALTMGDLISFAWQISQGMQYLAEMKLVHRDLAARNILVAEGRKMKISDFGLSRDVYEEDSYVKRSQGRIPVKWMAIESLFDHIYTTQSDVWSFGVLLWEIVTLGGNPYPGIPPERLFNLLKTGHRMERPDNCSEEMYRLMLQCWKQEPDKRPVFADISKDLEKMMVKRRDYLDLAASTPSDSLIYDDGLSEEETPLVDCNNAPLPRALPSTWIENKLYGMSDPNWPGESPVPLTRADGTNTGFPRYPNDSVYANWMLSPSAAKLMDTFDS
T31 sequence (Q15139 whole entry): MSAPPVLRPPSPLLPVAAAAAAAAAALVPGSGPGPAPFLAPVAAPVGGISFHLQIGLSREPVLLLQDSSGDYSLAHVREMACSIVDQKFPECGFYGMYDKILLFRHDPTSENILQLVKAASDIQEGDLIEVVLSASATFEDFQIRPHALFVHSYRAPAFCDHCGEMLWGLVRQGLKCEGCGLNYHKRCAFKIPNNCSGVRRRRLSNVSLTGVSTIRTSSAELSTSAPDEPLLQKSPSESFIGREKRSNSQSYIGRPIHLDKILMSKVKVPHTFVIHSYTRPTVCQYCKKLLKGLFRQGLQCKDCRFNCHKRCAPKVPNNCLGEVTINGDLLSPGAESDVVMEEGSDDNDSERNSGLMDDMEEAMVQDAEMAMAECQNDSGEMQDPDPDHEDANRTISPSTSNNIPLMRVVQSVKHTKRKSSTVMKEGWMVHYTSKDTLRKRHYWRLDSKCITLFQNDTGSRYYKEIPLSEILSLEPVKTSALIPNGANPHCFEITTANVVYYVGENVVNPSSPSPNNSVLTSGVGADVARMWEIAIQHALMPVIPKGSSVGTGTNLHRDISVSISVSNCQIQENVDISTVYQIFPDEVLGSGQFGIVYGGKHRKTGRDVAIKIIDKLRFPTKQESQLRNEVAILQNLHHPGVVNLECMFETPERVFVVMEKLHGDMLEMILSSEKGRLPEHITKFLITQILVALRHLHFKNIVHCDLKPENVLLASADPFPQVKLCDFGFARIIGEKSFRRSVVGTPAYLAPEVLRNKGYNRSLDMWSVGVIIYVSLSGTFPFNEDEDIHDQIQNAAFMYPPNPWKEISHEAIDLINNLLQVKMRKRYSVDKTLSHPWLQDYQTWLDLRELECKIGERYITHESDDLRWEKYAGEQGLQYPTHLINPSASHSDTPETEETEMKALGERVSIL
T13 sequence (Q9NR20 whole entry, species assumed): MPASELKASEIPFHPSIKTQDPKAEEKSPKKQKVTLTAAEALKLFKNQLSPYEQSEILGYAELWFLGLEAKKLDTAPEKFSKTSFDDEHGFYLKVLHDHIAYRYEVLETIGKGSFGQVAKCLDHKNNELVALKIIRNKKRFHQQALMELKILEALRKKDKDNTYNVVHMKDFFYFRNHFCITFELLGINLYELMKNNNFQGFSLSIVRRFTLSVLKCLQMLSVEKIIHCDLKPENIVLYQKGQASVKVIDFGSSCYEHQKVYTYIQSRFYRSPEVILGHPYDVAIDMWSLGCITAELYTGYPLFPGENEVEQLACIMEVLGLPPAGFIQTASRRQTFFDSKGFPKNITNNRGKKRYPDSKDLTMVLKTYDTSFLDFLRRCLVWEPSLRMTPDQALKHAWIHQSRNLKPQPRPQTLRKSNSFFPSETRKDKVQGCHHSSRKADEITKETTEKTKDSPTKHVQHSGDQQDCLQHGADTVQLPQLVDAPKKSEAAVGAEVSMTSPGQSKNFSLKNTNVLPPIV
T18 sequence (P08631 whole entry, species assumed): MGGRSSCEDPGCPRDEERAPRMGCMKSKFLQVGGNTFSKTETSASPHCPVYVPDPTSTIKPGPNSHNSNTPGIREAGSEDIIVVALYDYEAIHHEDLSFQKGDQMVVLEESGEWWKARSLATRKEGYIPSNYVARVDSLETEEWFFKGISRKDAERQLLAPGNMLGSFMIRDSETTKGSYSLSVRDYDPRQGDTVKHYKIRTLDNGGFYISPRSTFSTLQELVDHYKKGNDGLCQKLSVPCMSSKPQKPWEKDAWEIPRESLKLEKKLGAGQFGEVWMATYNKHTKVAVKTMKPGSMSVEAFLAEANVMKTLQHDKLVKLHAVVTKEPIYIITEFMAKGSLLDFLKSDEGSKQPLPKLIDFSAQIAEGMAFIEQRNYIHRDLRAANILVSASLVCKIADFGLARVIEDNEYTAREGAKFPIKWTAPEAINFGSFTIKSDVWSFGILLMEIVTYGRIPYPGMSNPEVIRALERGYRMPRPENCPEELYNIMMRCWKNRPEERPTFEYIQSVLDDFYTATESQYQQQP
T34 sequence (P07949 29-1114 V804L): as the sequence (P07949 29-1114, species assumed) above, with V776L counted along it

CSc1sc(-c2cc[nH]n2)c2c1C(=O)CCC2 [Example 1, 3-(Methylsulfanyl)-1-(1H-pyrazol-3-yl)-6,7-dihydro-2-benzothiophen-4(5H)-one]
inhibition at 10 µM (ABL Q252H): 16.9% | inhibition at 10 µM (ABL T315I): 9.9% | inhibition at 10 µM (AMPKA1): 16.4% | inhibition at 10 µM (CAMK2A): -4.8% | inhibition at 10 µM (CAMK2B): 6.3% | inhibition at 10 µM (CAMK2G): 3.1% | inhibition at 10 µM (CDK1/CYCB1): 5.3% | inhibition at 10 µM (CDK2): 18.4% | inhibition at 10 µM (CDK3): 21.4% | inhibition at 10 µM (CHK2): 48.7% | inhibition at 10 µM (DYRK1A): 44% | inhibition at 10 µM (DYRK3): 11.7% | inhibition at 10 µM (DYRK4): -1.1% | inhibition at 10 µM (EPHA3): -2.2% | inhibition at 10 µM (EPHA4): -0.8% | inhibition at 10 µM (FLT1): 1.2% | inhibition at 10 µM (FMS): -36.1% | inhibition at 10 µM (HCK): 12.5% | inhibition at 10 µM (HIPK2): 25.2% | inhibition at 10 µM (ITK): 4.8% | inhibition at 10 µM (KDR): 16.4% | inhibition at 10 µM (KIT): 19.2% | inhibition at 10 µM (MET M1250T): 5.1% | inhibition at 10 µM (MSK2): 4.2% | inhibition at 10 µM (P38A/SAPK2A T106M): 1.2% | inhibition at 10 µM (PDGFRA): 15.7% | inhibition at 10 µM (PDGFRA D842V): 33.9% | inhibition at 10 µM (PHKG2): -5.5% | inhibition at 10 µM (PIM2): 1.6% | inhibition at 10 µM (PIM-3): 23.7% | inhibition at 10 µM (PKD1): 5.5% | inhibition at 10 µM (PRKCB2): -7.4% | inhibition at 10 µM (RET): 24.4% | inhibition at 10 µM (RET V804L): 41.5% | inhibition at 10 µM (ROCK1): -3.1% | inhibition at 10 µM (TEC): 0.6% | inhibition at 10 µM (TYRO3): 8.6% | inhibition at 10 µM (ZIPK): 8.1%

CC1(C)CC(=O)c2c(SC3CCCC3)sc(-c3cc[nH]n3)c2C1 [Example 7, 3-(Cyclopentylsulfanyl)-6,6-dimethyl-1-(1H-pyrazol-3-yl)-6,7-dihydro-2-benzothiophen-4(5H)-one]
inhibition at 10 µM (ABL Q252H): 3.9% | inhibition at 10 µM (ABL T315I): 2.6% | inhibition at 10 µM (AMPKA1): -0.5% | inhibition at 10 µM (CAMK2A): 1.7% | inhibition at 10 µM (CAMK2B): 6% | inhibition at 10 µM (CAMK2G): 4.4% | inhibition at 10 µM (CDK1/CYCB1): -6.7% | inhibition at 10 µM (CDK2): 2.1% | inhibition at 10 µM (CDK3): 2.5% | inhibition at 10 µM (CHK2): 3.7% | inhibition at 10 µM (DYRK1A): 0% | inhibition at 10 µM (DYRK3): -8.5% | inhibition at 10 µM (DYRK4): 0.4% | inhibition at 10 µM (EPHA3): -2.9% | inhibition at 10 µM (EPHA4): -3.5% | inhibition at 10 µM (FLT1): 11.8% | inhibition at 10 µM (FMS): -6.5% | inhibition at 10 µM (HCK): -1.1% | inhibition at 10 µM (HIPK2): 5% | inhibition at 10 µM (ITK): -2.9% | inhibition at 10 µM (KDR): -0.8% | inhibition at 10 µM (KIT): -7.3% | inhibition at 10 µM (MET M1250T): -0.3% | inhibition at 10 µM (MSK2): 10.4% | inhibition at 10 µM (P38A/SAPK2A T106M): 3.7% | inhibition at 10 µM (PDGFRA): -0.7% | inhibition at 10 µM (PDGFRA D842V): 3.7% | inhibition at 10 µM (PHKG2): -2% | inhibition at 10 µM (PIM2): -1.6% | inhibition at 10 µM (PIM-3): 8.2% | inhibition at 10 µM (PKD1): -10.6% | inhibition at 10 µM (PRKCB2): 6.4% | inhibition at 10 µM (RET): 20.7% | inhibition at 10 µM (RET V804L): 15.7% | inhibition at 10 µM (ROCK1): 5.1% | inhibition at 10 µM (TEC): -3.2% | inhibition at 10 µM (TYRO3): 10.5% | inhibition at 10 µM (ZIPK): 1%
